Read-outs that look alike come from different tables or passages of the source.
Assays:
human D2S receptor = biological target: T1, human D2S receptor (Homo sapiens, UniProt P14416); experiment: radioligand binding to dopamine receptor D2S ([3H] Spiperone); conditions: for Dopamine receptor D2S, % inhibition: 10 μM ligand
T1 construct: expressed in transfected cells; host or cells: CHO
Text: 7-C. […] For this purpose sDNA of human D2S receptor is expressed in CHO cells, as described in [Hayes G, Biden T J, Selbie L A and Shine J, Structural subtypes of the dopamine D2 receptor are functionally distinct. […] Mol. Endocrinol. […] Mol. Endocrinol. […] Spiperone is used as positive control.

adrenergic receptor α1A = biological target: T2, adrenergic receptor α1A (Rattus norvegicus, UniProt P43140); experiment: radioligand binding to adrenergic receptor α1A ([3H] Prazosin)
T2 construct: membrane species from rat submaxillary glands (rat of Wistar breed) are prepared; from tissue; host or cells: rat (Wistar) submaxillary gland membranes
T2 sequence (P43140 1-466): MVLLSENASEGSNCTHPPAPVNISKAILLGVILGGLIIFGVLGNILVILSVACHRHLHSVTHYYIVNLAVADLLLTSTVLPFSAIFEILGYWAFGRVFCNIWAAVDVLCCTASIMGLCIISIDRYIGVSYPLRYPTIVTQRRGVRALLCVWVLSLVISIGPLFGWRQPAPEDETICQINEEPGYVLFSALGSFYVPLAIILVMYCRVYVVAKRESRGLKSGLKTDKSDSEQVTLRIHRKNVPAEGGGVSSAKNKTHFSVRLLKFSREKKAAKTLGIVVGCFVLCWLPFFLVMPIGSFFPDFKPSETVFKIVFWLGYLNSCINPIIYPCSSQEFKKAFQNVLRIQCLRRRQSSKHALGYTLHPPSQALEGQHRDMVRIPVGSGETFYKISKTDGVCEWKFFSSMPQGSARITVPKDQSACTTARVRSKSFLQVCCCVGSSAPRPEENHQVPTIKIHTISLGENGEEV
Method: Determination of investigated compounds' binding to α1A receptor was carried out according to the method described in [Michel A D, Loury D N and Whiting R l. Identification of a single α1A-adrenoceptor corresponding to the α1A-subtype in rat submaxillary gland. Br J. Pharmacol. 98:883-889, 1989]. […] Prazosin is used as positive control.

human α2A receptor = biological target: T3, human α2A receptor (Homo sapiens, UniProt P08913); experiment: radioligand binding to adrenergic receptor α2A ([3H] MK-912)
T3 construct: expressed in transfected cells; host or cells: Sf9
T3 sequence (P08913 1-465): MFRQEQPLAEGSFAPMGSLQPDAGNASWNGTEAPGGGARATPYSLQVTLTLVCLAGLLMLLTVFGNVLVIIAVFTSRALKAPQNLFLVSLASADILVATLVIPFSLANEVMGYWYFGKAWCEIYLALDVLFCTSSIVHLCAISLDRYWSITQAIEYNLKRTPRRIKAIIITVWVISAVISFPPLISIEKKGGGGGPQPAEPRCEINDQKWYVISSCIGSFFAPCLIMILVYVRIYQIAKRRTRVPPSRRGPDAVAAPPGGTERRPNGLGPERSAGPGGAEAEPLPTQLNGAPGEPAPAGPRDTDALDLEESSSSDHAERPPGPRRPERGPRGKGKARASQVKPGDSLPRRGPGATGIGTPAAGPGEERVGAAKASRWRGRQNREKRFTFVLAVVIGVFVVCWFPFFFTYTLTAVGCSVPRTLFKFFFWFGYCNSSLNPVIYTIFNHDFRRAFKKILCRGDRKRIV
Text: J Pharmacol ExpTher. […] Yohimbine is used as positive control.

adrenergic receptor α1B = biological target: T4, adrenergic receptor α1B (Rattus norvegicus, UniProt P15823); experiment: radioligand binding to adrenergic receptor α1B ([3H] Prazosin)
T4 construct: membrane species from rat liver (rat of Wistar breed) are prepared; from tissue; host or cells: rat (Wistar) liver membranes
T4 sequence (P15823 1-515): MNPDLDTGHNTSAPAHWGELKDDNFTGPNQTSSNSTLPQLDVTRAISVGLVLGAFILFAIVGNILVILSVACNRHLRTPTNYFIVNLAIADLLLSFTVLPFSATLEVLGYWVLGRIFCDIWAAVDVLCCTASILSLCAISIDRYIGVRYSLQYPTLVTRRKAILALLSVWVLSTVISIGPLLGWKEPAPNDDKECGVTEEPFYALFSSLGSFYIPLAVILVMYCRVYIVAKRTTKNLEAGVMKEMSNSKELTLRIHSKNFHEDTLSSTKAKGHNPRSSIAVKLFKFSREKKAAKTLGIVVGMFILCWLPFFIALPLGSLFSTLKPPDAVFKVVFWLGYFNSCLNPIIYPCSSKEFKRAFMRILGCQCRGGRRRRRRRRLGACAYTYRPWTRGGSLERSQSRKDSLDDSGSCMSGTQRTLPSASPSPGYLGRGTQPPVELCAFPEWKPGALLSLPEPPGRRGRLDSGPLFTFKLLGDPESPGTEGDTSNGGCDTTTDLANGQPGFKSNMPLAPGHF
Text: Species heterogeneity of hepatic α1A-, α1B-, and α1C-subtypes. Biochem Biophys Res Commun. 186:760-7676 1992]. […] Prazosin is used as positive control.

[1] = biological target: T5, recombinant human 5-HT6 receptor (Homo sapiens, UniProt P50406); experiment: radioligand binding to serotonin receptor 5-HT6 ([3H] Lysergic acid diethylamide); conditions: for inhibition at 1 µM: read-out: 5-HT6 % inhibition
T5 construct: expressed in transfected cells; host or cells: HeLa
T5 sequence (P50406 whole entry): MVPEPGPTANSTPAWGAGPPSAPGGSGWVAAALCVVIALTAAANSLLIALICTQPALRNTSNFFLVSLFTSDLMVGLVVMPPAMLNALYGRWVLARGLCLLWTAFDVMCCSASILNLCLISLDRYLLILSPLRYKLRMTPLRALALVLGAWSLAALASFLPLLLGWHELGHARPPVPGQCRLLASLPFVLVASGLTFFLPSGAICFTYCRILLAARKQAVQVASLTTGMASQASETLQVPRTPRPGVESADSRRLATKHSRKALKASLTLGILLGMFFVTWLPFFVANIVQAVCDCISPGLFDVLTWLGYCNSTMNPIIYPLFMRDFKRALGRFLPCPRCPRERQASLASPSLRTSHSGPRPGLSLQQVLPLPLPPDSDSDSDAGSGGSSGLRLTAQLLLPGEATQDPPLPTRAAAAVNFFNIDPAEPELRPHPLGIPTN
Text: Mol. Pharmacol. 43:320-327, 1993]. […] Methiothepin is used as positive control.

T1 sequence (P14416 1-414 isoform P14416-2): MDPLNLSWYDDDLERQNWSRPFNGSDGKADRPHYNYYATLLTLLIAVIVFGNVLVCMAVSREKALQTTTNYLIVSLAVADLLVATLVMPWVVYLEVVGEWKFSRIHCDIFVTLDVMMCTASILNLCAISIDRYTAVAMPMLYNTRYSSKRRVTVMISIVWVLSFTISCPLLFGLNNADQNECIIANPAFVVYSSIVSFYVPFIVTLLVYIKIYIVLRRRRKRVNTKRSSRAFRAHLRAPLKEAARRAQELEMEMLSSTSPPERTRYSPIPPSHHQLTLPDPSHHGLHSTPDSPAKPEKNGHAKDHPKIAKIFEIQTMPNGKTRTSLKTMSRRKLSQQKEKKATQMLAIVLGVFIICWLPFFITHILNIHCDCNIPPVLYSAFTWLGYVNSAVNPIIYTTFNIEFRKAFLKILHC

| SMILES | Dopamine receptor D2S, % inhibition (human D2S receptor) | α-Adrenoceptor α2A, % inhibition (human α2A receptor; 10 μM ligand) | α-Adrenoceptor α1B, % inhibition (adrenergic receptor α1B; 10 μM ligand) | IC50 (adrenergic receptor α1A) | Ki (adrenergic receptor α1A) | IC50 (human α2A receptor) | Ki (human α2A receptor) | IC50 (adrenergic receptor α1B) | Ki (adrenergic receptor α1B) | IC50 [1] | Ki [1] | nH 5-HT6 [1] | also measured |
| --- | --- | --- | --- | --- | --- | --- | --- | --- | --- | --- | --- | --- | --- |
| Cc1ccc2c(c1)[C@H]1CN(C)CCC[C@@H]1N2CCc1cccnc1 [1.6.2(10)•3HCl] | 33% | 92% | 92% | – | – | – | – | – | – | – | – | – | α-Adrenoceptor α1A, % inhibition (adrenergic receptor α1A; 10 μM ligand): 86%; inhibition at 1 µM [1]: 93% |
| CN1CCc2c(c3ccccc3n2Cc2ccccc2)C1 [1.9(1)•½NDSA, bis-(5-benzyl-2-methyl-2,3,4,5-tetrahydro-1H-pyrido[4,3-b]indole) naphtalene-1,5-disulfonate] | 51% | – | – | 510 nM | 206 nM | 123 nM | 46.1 nM | 1580 nM | 872 nM | 103 nM | 47.6 nM | 1.07 | IC50 (human D2S receptor): 3000 nM; Ki (human D2S receptor): 1080 nM; nH D2S (human D2S receptor): 0.879; nH α1A (adrenergic receptor α1A): 1.08; α-Adrenoceptor α1A, % inhibition (adrenergic receptor α1A; 1 μM ligand): 67(1 μM) %; nH α2A (human α2A receptor): 1.13; α-Adrenoceptor α2A, % inhibition (human α2A receptor; 0.3 μM ligand): 73(0.3 μM) %; nH α1B (adrenergic receptor α1B): 0.956; α-Adrenoceptor α1B, % inhibition (adrenergic receptor α1B; 3 μM ligand): 62(3 μM) %; 5-HT6 % inhibition ([1]; 0.3 μM ligand): 78% |
| Cc1ccc2c(c1)c1c(n2CCc2ccccn2)CCN(C)C1.Cl.Cl [1.1.2(2-3)•2HCl] | – | – | – | 450 nM | 182 nM | 128 nM | 47.9 nM | 47 nM | 26 nM | 109 nM | 50.5 nM | 0.744 | inhibition at 1 µM ([1]; ligand concentration 1 μM): 97% |
| Cc1ccc2c(c1)[C@@H]1CN(C)CCC[C@@H]1N2CCc1ccc(C)nc1.Cl.Cl.Cl (relative stereo) [1.6.1(2)•3HCl] | 31% | 82% | 93% | – | – | – | – | – | – | – | – | – | – |

From patent publication US20110039825A1, “LIGANDS OF ALPHA-ADRENOCEPTORS, DOPAMINE, HISTAMINE, IMIDAZOLINE AND SEROTONIN RECEPTORS AND THEIR USE” (Alla Chem, LLC, priority 2007, published 2011)
